The experiment deals with S1P5 (Homo sapiens, UniProt Q9H228). The experiment in a line: [35S]-GTPγS functional binding assay on CHO-S1P5 membranes. To be noted: membranes of CHO cells expressing recombinant S1P5; measure of S1P5 agonism. The format is biochemical. How it is done:
CHO cells expressing recombinant S1P5 receptors were cultured in 500 cm^2 culture trays and, once confluent, rinsed and detached with cell-lifting buffer (10 mM HEPES, 154 mM NaCl, 6.85 mM EDTA, pH 7.4). Cells were then pelleted by centrifugation, resuspended, and homogenized in membrane preparation buffer (10 mM HEPES and 10 mM EDTA, pH 7.4) using a Polytron PT 1200E homogenizer (Kinematica, Luzern, Switzerland). Cellular proteins were pelleted by centrifugation at 48,000×g at 4° C. for 30 minutes. The resulting supernatant was discarded, and the pellet was re-suspended again in membrane preparation buffer, homogenized for a second time, and then centrifuged again as described above. The final cellular protein pellet was suspended in ice cold resuspension buffer (10 mM HEPES and 0.1 mM EDTA, pH 7.4), divided into aliquots, and stored at −80° C. until use.
Functional binding assays for [^35S]-GTPγS were performed in 96-well non-binding surface plates with a final volume of 200 μL. The test compounds were serially diluted in DMSO and added to assay plates using a Tecan D300E digital printer with a total volume of 0.4 μL. The control sphingosine-1-phosphate (S1P) was prepared separately by preparing a 400 μM stock solution from a 100 nmol pellet of SIP in 10 mM Na2CO3 with 2% β-cyclodextrin. The serial dilution of S1P was done using complete assay buffer (20 mM HEPES, 10 mM MgCl2, 100 mM NaCl, 1 mM EDTA, 0.1% fatty acid free bovine serum albumin (BSA), and 30 μg/mL saponin, pH 7.4) and transferred to wells already containing 0.4 μL DMSO. All the wells were then loaded to a total volume of 40 μL of complete assay buffer, except the non-specific binding (NSB) wells. For NSB wells, 40 μL/well of 50 μM GTPγS (Sigma Aldrich, cat #G8634, St. Louis, MO) was added to wells containing 0.4 μL of DMSO. The assay was started by the addition of 120 μL/well of CHO—S1P receptor membrane solution containing 40 μg/mL of membrane protein, 16.67 μM guanosine diphosphate (GDP; Sigma Aldrich, cat #G7127, St. Louis, MO), and 2.5 mg/mL of WGA PVT SPA beads in complete buffer. Assay plates were then sealed and incubated at room temperature with gentle agitation for 30 minutes. Next, 40 μL/well of 1 nM of [^35S]-GTPγS (PerkinElmer, cat #NEG030X250UC, Waltham, MA) in basic assay buffer (20 mM HEPES, 10 mM MgCl2, 100 mM NaCl, and 1 mM EDTA, pH7.4) was added to the assay plates to yield a final concentration of 200 pM and the plates were further incubated for 40 minutes at room temperature with gentle agitation. The assay was terminated by centrifugation of the plates at 1000 rpm for 3 minutes using an Eppendorf 5810R centrifuge (Eppendorf, Hamburg, Germany) and G protein bound radioactivity was quantitated using a MicroBeta2 microplate scintillation counter (PerkinElmer, Waltham, MA). As G protein bound radioactivity directly correlates to receptor activation and coupling to the G protein, this assay is a measure of S1P5 agonism.
On the technique in general: Binding of GTPγS marks nucleotide exchange on a G protein.

Data on 13 compounds can be found in patent US20260209203A1, “Heterocyclic Compounds as Modulators of S1P5” (Celgene Corporation, priority 2022, published 2026).

Sequence of S1P5 (Q9H228 whole entry, species assumed): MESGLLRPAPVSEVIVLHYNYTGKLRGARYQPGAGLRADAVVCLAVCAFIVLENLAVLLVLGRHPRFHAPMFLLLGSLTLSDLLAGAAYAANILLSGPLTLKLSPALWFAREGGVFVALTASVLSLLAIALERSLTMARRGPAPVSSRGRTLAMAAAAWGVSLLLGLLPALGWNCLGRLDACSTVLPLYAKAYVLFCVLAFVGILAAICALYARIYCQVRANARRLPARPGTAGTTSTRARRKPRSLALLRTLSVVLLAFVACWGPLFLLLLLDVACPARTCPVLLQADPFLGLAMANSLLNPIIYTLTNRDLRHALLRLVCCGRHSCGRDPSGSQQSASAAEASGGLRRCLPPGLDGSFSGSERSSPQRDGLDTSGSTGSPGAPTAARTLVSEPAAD

For the compound `CNC(=O)C1CCN(Cc2c(C)cc(C3CN(c4c(Cl)cccc4Cl)C3)cc2C)CC1` [Compound 1, 1-(4-(1-(2,6-dichlorophenyl)-azetidin-3-yl)-2,6-dimethyl-benzyl)-N-methylpiperidine-4-carboxamide], the EC50 was 1 to 10 nM.
As for `Cc1cc(C2CN(c3c(Cl)cccc3Cl)C2)cc(C)c1CN1CCC(C(=O)N(C)C)CC1` [Compound 2, 1-(4-(1-(2,6-dichlorophenyl)-azetidin-3-yl)-2,6-dimethyl-benzyl)-N,N-dimethylpiper-idine-4-carboxamide], the figure is 1 to 10 nM; as for `COCCNC(=O)C1CCN(Cc2c(C)cc(C3CN(c4c(Cl)cccc4Cl)C3)cc2C)CC1` [Compound 3, 1-(4-(1-(2,6-dichlorophenyl)-azetidin-3-yl)-2,6-dimethyl-benzyl)-N-(2-methoxyethyl)-piperidine-4-carboxamide], 1 to 10 nM.
In the case of `Cc1cc(C2CN(c3c(Cl)cccc3Cl)C2)cc(C)c1CN1CCC(C(=O)NC2CC2)CC1` [Compound 4, N-cyclopropyl-1-(4-(1-(2,6-dichlorophenyl)-azetidin-3-yl)-2,6-dimethylbenzyl)-piperidine-4-carboxamide], the EC50 lay within 10 to 100 nM.
On to `Cc1cc(C2CN(c3c(Cl)cccc3Cl)C2)cc(C)c1CN1CCC(C(=O)NCC2CC2)CC1` [Compound 5, N-(cyclopropylmethyl)-1-(4-(1-(2,6-dichlorophenyl)-azetidin-3-yl)-2,6-dimethyl-benzyl)piperidine-4-carbox-amide], for which the EC50 is 10 to 100 nM.
The result for `Cc1cc(C2CN(c3c(Cl)cccc3Cl)C2)cc(C)c1CN1CCC(C(=O)NC2CCC2)CC1` [Compound 6, N-cyclobutyl-1-(4-(1-(2,6-dichlorophenyl)azetidin-3-yl)-2,6-dimethylbenzyl)-piperidine-4-carboxamide] reads 10 to 100 nM; that for `Cc1cc(C2CN(c3c(Cl)cccc3Cl)C2)cc(C)c1CN1CCC(C(=O)NC2CCC(O)CC2)CC1` (stereo not shown) [Compound 7, 1-(4-(1-(2,6-dichlorophenyl)-azetidin-3-yl)-2,6-dimethyl-benzyl)-N-(4-hydroxycyclo-hexyl)-piperidine-4-carbox-amide], 100 to 1000 nM.
As to `Cc1cc(C2CN(c3c(Cl)cccc3Cl)C2)cc(C)c1CN1CCC(C(=O)N2CCN(C)CC2)CC1` [Compound 8, (1-(4-(1-(2,6-dichlorophen-yl)azetidin-3-yl)-2,6-dimeth-ylbenzyl)-piperidin-4-yl)(4-methyl-piperazin-1-yl)-methanone], the EC50 was in the range of 100 to 1000 nM.
The result for `Cc1cc(C2CN(c3c(Cl)cccc3Cl)C2)cc(C)c1CN1CCC(C(=O)N2CCOCC2)CC1` [Compound 9, (1-(4-(1-(2,6-dichlorophen-yl)azetidin-3-yl)-2,6-dimeth-ylbenzyl)-piperidin-4-yl)-(morpholino)methanone] reads 100 to 1000 nM.
As to `Cc1cc(C2CN(c3c(Cl)cccc3Cl)C2)cc(C)c1CN1CCC(C(=O)NCC(C)C)CC1` [Compound 10, 1-(4-(1-(2,6-dichlorophenyl)-azetidin-3-yl)-2,6-dimethyl-benzyl)-N-isobutylpiperidine-4-carboxamide], the EC50 lay within 100 to 1000 nM.
For the compound `Cc1cc(C2CN(c3c(Cl)cccc3Cl)C2)cc(C)c1CN1CCC(C(=O)N(C)CCO)CC1` [Compound 11, 1-(4-(1-(2,6-dichlorophenyl)-azetidin-3-yl)-2,6-dimethyl-benzyl)-N-(2-hydroxyethyl)-N-methylpiperidine-4-carbox-amide], the EC50 fell in the range of 100 to 1000 nM.
The result for `Cc1cc(C2CN(c3c(Cl)cccc3Cl)C2)cc(C)c1CN1CCC(C(=O)N2CCC(O)CC2)CC1` [Compound 12, (1-(4-(1-(2,6-dichlorophenyl)-azetidin-3-yl)-2,6-dimethyl-benzyl)-piperidin-4-yl)(4-hydroxy-piperidin-1-yl)-methanone] reads 100 to 1000 nM; that for `Cc1cc(C2CN(c3c(Cl)cccc3Cl)C2)cc(C)c1CN1CCC(C(=O)N(C)CCN(C)C)CC1` [Compound 13, 1-(4-(1-(2,6-dichlorophenyl)-azetidin-3-yl)-2,6-dimethyl-benzyl)-N-(2-(dimethyl-amino)ethyl)-N-methylpiper-idine-4-carboxamide], 100 to 1000 nM.

For orientation: EC50 means the concentration at which the effect is half-maximal.
